{"source": "paper PMC2970562", "about": "“High-Affinity Inhibitors of Human NAD^+-Dependent 15-Hydroxyprostaglandin Dehydrogenase: Mechanisms of Inhibition and Structure-Activity Relationships” (PLoS ONE, 2010)", "key": {"human 15-PGDH [1]": {"target": "T1, human 15-PGDH (Homo sapiens, UniProt P15428)", "T1 construct": "comprising residues 3–256 of the human HPGD gene (GenBank identifier: 1203982); His6 (GHHHHHH, behind the TEV site) (C, cleaved yes); made in house; host or cells: E. coli BL21(DE3)-R3", "T1 sequence (P15428 3-256)": "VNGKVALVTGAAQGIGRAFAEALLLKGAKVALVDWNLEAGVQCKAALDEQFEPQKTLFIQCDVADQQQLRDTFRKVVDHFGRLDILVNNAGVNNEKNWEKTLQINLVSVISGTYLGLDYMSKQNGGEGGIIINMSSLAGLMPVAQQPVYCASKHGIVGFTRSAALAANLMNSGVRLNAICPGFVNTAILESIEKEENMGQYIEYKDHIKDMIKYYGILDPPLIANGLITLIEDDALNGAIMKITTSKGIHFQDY", "assay": "qHTS and 24-point re-test: fluorescence assay of NAD+ reduction to NADH on PGE2 oxidation (PubChem AID 894)", "type": "biochemical", "conditions": "read-out: qHTS IC50", "in_short": "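NADH fluorescence (ex 340/em 450 nm) followed kinetically over a 2-min initial rate. Data normalized to no-enzyme and no-compound controls; four-parameter Hill fit.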"}, "human 15-PGDH [2]": {"target": "T1, human 15-PGDH", "assay": "Differential scanning fluorimetry (DSF), thermal stabilization", "type": "binding", "conditions": "for ∆Tm [°C] NAD+: with 200 µM NAD+; for ∆Tm [°C] NAD+ / ∆Tm [°C] NADH / ∆Tm [°C] apo: 1 µM protein, compound 50 or 250 µM, N/A = no unfolding transition observed in DSF; for ∆Tm [°C] NADH: with 200 µM NADH; for ∆Tm [°C] apo: without cofactor"}, "HADH2 (HSD17β10)": {"target": "T2, HADH2 (HSD17β10) (Homo sapiens, UniProt Q99714)", "T2 sequence (Q99714 1-261)": "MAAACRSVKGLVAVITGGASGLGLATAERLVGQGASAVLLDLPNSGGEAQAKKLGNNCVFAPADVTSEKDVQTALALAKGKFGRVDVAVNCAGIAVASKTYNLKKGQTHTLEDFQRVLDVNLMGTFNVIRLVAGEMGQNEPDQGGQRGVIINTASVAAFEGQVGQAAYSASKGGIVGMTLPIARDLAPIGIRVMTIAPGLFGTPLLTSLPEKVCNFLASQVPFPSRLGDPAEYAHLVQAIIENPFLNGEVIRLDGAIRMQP", "assay": "Selectivity screen, hydroxyacyl dehydrogenase (PubChem Assay ID 886)", "method": "The list also includes two SDR enzymes, hydroxyacyl dehydrogenase (HADH2, also known as type-10 hydroxysteroid dehydrogenase, HSD17β10; PubChem Assay ID 886) and type-4 hydroxysteroid dehydrogenase (HSD17β4; PubChem Assay ID 893), and a medium-chain dehydrogenase/reductase (MDR), aldehyde dehydrogenase 1 (ALDH1A1; PubChem Assay ID 1030), each of which was tested using a similar experimental protocol to that used for 15-PGDH."}}}
{"smiles": "Cc1cccc(-n2cnc3cc(C(=O)N4CCCCC4)ccc32)c1", "note": "[Compound 13, [1-(3-methylphenyl)-1H-benzimidazol-5-yl)(piperidin-1-yl)methanone]", "values": [{"measurement": "IC50", "setting": "human 15-PGDH [1]", "value": 56, "unit": "nM"}, {"measurement": "ΔTm in the presence of NAD+", "setting": "human 15-PGDH [2]", "value": "7.3±0.2", "unit": "°C"}, {"measurement": "ΔTm in the presence of NADH", "setting": "human 15-PGDH [2]", "value": "13.5±0.9", "unit": "°C"}, {"measurement": "∆Tm [°C] NAD+", "setting": "human 15-PGDH [2]", "value": 7.3, "unit": "°C"}, {"measurement": "∆Tm [°C] NADH", "setting": "human 15-PGDH [2]", "value": 13.5, "unit": "°C"}, {"measurement": "∆Tm [°C] apo", "setting": "human 15-PGDH [2]", "value": -1.7, "unit": "°C"}, {"measurement": "IC50", "setting": "HADH2 (HSD17β10)", "value": "> 57500", "unit": "nM"}]}
{"smiles": "Cc1cc(-c2nnc3n2CCCCC3)c(C)n1-c1ccccc1", "note": "[Compound 72]", "values": [{"measurement": "IC50", "setting": "human 15-PGDH [1]", "value": 89, "unit": "nM"}, {"measurement": "∆Tm [°C] NAD+", "setting": "human 15-PGDH [2]", "value": 5.0, "unit": "°C"}, {"measurement": "∆Tm [°C] NADH", "setting": "human 15-PGDH [2]", "value": 10.5, "unit": "°C"}, {"measurement": "∆Tm [°C] apo", "setting": "human 15-PGDH [2]", "value": 0.1, "unit": "°C"}, {"measurement": "IC50", "setting": "HADH2 (HSD17β10)", "value": "> 57500", "unit": "nM"}]}
